Results on four compounds are retold here after patent publication US12428443B2, “Abiraterone precursor compound and preparation method and use thereof” (SUZHOU AIHE PHARMACEUTICAL TECHNOLOGY CO., LTD., priority 2021, dated 2025).

One data set deals with LNCAP clone FGC. Nature of the data set: CellTiter-Glo chemiluminescent cell viability assay (CTG method), LNCAP. It is filed as cell-based. The settings on record: LNCAP cells, 72 h; for IC50: read-out: Absolute IC50. Here is the method:
(§1) Half-maximal inhibitory concentrations (IC50) of abiraterone acetate and LHY-AB614 for proliferation of LNCAP clone FGC and VCAP were assessed by a CellTiter-Glo® chemiluminescent cell viability assay (namely, a CTG method). Cells in an exponential phase were collected, and live cells were counted. Each cell suspension was adjusted with a corresponding medium to an appropriate concentration. 90 μL of a cell suspension was added to each well of a 96-well plate and cultivated in a 37° C. and 5% CO2 incubator for 24 h. A sample to be tested was dissolved in DMSO to prepare a stock solution with a starting concentration of 50 μM, and the stock solution was 3-fold diluted with a medium to obtain 10× working solutions with 9 concentrations. Cisplatin, as a reference compound, was dissolved in DMSO to prepare a stock solution with a starting concentration of 100 μM, and the stock solution was 3-fold diluted with a medium to obtain 10× working solutions with 9 concentrations. 10 μL of a working solution was added to cells in each well, and then the cells were cultivated in a 37° C. and 5% CO2 incubator for 72 h. The 96-well plate was equilibrated at room temperature for about 30 min, then 50 μL of a CTG solution was added to each well, and the 96-well plate was shaken on a microplate shaker for 2 min to perform cell lysis and placed at room temperature for 20 min to stabilize a fluorescence signal. A fluorescence signal value was determined with an Envision2104 plate reader. On the GraphPad Prism software, a nonlinear regression model was used to plot an S-type dose-response curve and calculate an IC50 value.

A further data set has as its system VCAP. Nature of the data set: CellTiter-Glo chemiluminescent cell viability assay (CTG method), VCAP. The settings on record: VCAP cells, 72 h; for IC50: read-out: Absolute IC50. In kind it is cell-based. The protocol:
as §1
(Cellular ATP, detected with luciferase, serves as a proxy for viable cell number.)

A short description of data set [1]: Comparative study of pharmacokinetic properties in Beagle dogs (oral). In kind it is in vivo. Here is the method: Four healthy Beagle dogs with body weights in a range of 6 kg to 8 kg were selected. The Beagle dogs were fasted for 12 h the day before an experiment, and all were given a low-fat standard meal after administration. The Beagle dogs should not be administered with other drugs two weeks before the experiment and during the experiment. The four Beagle dogs were randomly divided into a group A and a group B (2 dogs in each group). LHY-AB614 was administered orally at a dose of 46.8 mg/kg (32.2 mg/kg based on abiraterone), and abiraterone acetate was administered orally at a dose of 42.3 mg/kg (37.8 mg/kg based on abiraterone). Blank blood was collected in an EDTA-K2 anticoagulation tube before administration, and at 0.25 h, 0.5 h, 1.0 h, 2.0 h, 4.0 h, 6.0 h, 8.0 h, and 24.0 h after administration, 1 mL of blood was collected in EDTA-K2 anticoagulation tubes. After blood was fully mixed with an anticoagulant, each of the anticoagulation tubes was immediately placed in ice and centrifuged as soon as possible to isolate plasma, and the isolated plasma was stored in labeled EP tubes. 50 μL of a plasma sample was taken, 300 μL of a 10 ng/mL carbamazepine-containing acetonitrile solution was added for protein precipitation, and a resulting mixture was vortexed for 5 min and then centrifuged in a centrifuge at 5,500 g for 10 min; and 100 μL of a resulting supernatant was taken, 300 μL of 50%-methanol water was added for dilution, a resulting dilution was vortexed, and 5 μL of a vortexed dilution was injected. In vivo drug concentrations of LHY-AB614, abiraterone acetate, and abiraterone were determined by HPLC-MS/MS.

Data set [2] can be described thus: Solubility test in normal saline. In kind it is physicochemical. The settings on record: saline or isotonic, thermodynamic from solid. Here is the method:
200 mg of LHY-AB614-622 was weighed, and 1 mL of normal saline was added.
2 mg of abiraterone acetate was weighed and dissolved in 1 mL of normal saline, a resulting solution was stirred overnight and then subjected to suction filtration, and a resulting filtrate was subjected to HPLC analysis. Abiraterone acetate was dissolved in methanol to prepare a 0.1 mg/mL solution as a control.

The conditions of data set [3]: cited from earlier work.
[4] abbreviates: Beagle, dog, in vivo, po, 46.8 mg/kg.

Read-outs that look alike come from different tables or passages of the source.

The IC50 is the point on the concentration scale where inhibition reaches its midpoint. In the case of `N.N.[Cl][Pt][Cl]` [Cisplatin], in the data set with LNCAP clone FGC, the Max inhibition is given as 97.49% and the IC50 was 12.8 µM. Further, in the data set on VCAP, the Max inhibition was determined as 85.02% and the IC50 turned out to be 40.3 µM.
For `CN(C)CCOCCOC(=O)O[C@H]1CC[C@@]2(C)C(=CC[C@@H]3[C@@H]2CC[C@]2(C)C(c4cccnc4)=CC[C@@H]32)C1` [Compound represented by formula I], the IC50 with LNCAP clone FGC (Homo sapiens, LNCaP-Clone-FGC) was determined as 3.2 µM; in the data set with VCAP (Homo sapiens) it was 5.7 µM. The Max inhibition in the data set with LNCAP clone FGC is 99.49%; in the data set with VCAP, 99.31%.
In general, AUC(0-inf) refers to total exposure, with the tail of the curve extrapolated. As a reminder, the AUC(0-t) is exposure summed from dosing to a finite time, without extrapolation to infinity. High values mean more exposure, low ones less exposure. What is called Tmax is the time from dosing to the highest level. What is called half-life is the time in which the quantity being followed falls by half. `CN(C)CCOCCOC(=O)O[C@H]1CC[C@@]2(C)C(=CC[C@@H]3[C@@H]2CC[C@]2(C)C(c4cccnc4)=CC[C@@H]32)C1` [LHY-AB614]: in the data set on LNCAP clone FGC (Homo sapiens, LNCaP-Clone-FGC), the IC50 is 3.2 µM. For the same compound, the “species detected in vivo after administration” value in data set [1] (Beagle, dog, in vivo, po) was “LHY-AB614 and abiraterone both can be detected in vivo”. In data set [1] (setting [4]), this compound registered an AUC0-inf of 6186 ng·h/mL, an AUC0-t of 6116 ng·h/mL, an AUC(0-inf) of 1060 ng·h/mL and an AUC(0-t) of 908 ng·h/mL. Also, in data set [1] (setting [4]), the “Cls, app” value was 757; the T1/2 is listed as 3.7 h; the Tmax came to 1.5 h; the half-life was 408 min. Moreover, in data set [1] (dog, in vivo, po), the “AUC compared with the administration of abiraterone acetate” value is given as “significantly increases”, the “Cmax of abiraterone compared with Cmax of LHY-AB614” value is listed as “much higher”, the “Cmax of abiraterone compared with the administration of abiraterone acetate” value is “significantly increases” and the “Tmax compared with the administration of abiraterone acetate” value is “does not change”. Besides, the IC50 in the data set on VCAP (Homo sapiens) amounted to 5.7 µM.
One may read the solubility as how much of the substance goes into solution per volume. Low readings indicate a poorly soluble substance, high ones a readily soluble substance. As to `CC(=O)O[C@H]1CC[C@@]2(C)C(=CC[C@@H]3[C@@H]2CC[C@]2(C)C(c4cccnc4)=CC[C@@H]32)C1` [Abiraterone acetate, abiraterone acetate], the IC50 is 15.5 µM in the data set on LNCAP clone FGC (Homo sapiens, LNCaP-Clone-FGC) and greater than 50 µM in the data set on VCAP (Homo sapiens). In addition, the Max inhibition with LNCAP clone FGC amounted to 78.30%; with VCAP it was 29.43%. Also, the solubility in data set [2] was less than 100 µg/mL. In data set [3] (combination with prednisone versus placebo and prednisone), the death risk reduced was 35%. For the same compound, the “median survival time prolonged versus placebo and prednisone” value in data set [3] (combination with prednisone, p<0.0001) is reported as 3.9 months. In addition, in data set [3] (patient treated with a combination of abiraterone acetate and prednisone), the median survival time is recorded as 14.8 months. The “species detected in vivo after administration” value in data set [1] (oral, Beagle dogs, plasma, HPLC-MS/MS) was “Only abiraterone is detected in vivo”.
